ChEMBL document CHEMBL1150021, “Alkyl ether analogs of the FK-506 related, immunosuppressive macrolide L-683,590 (ascomycin)” (Bioorg Med Chem Lett, 1994)
Blank lines part the entries; values can stand above or below the molecule they belong to.

Tests used:
T-cell = assay: In vitro evaluation for immunosuppressive activity against proliferation of antigen stimulated murine splenic T cells; format: functional, cell-based; settings: Mus musculus
[1] = target: Peptidyl-prolyl cis-trans isomerase FKBP1A (Homo sapiens, UniProt P62942); assay: Ability to bind the major cystolic receptor FK506 binding protein 12 by using competitive binding assay
Peptidyl-prolyl cis-trans isomerase FKBP1A, sequence (P62942 whole entry): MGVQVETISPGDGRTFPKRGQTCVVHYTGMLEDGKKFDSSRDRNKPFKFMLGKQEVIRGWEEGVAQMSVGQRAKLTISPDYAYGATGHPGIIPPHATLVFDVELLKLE

SMILES: CC[C@@H]1/C=C(\C)C[C@H](C)C[C@H](OC)[C@H]2O[C@@](O)(C(=O)C(=O)N3CCCC[C@H]3C(=O)O[C@H](/C(C)=C/[C@@H]3CC[C@@H](OCc4cccs4)[C@H](OC)C3)[C@H](C)[C@@H](O)CC1=O)[C@H](C)C[C@@H]2OC
IC50 (T-cell): 7.1 nM

SMILES: CC[C@@H]1/C=C(\C)C[C@H](C)C[C@H](OC)[C@H]2O[C@@](O)(C(=O)C(=O)N3CCCC[C@H]3C(=O)O[C@H](/C(C)=C/[C@@H]3CC[C@@H](OC/C=C/c4ccc(F)cc4)[C@H](OC)C3)[C@H](C)[C@@H](O)CC1=O)[C@H](C)C[C@@H]2OC
IC50 (T-cell): 5.5 nM

SMILES: CC[C@@H]1/C=C(\C)C[C@H](C)C[C@H](OC)[C@H]2O[C@@](O)(C(=O)C(=O)N3CCCC[C@H]3C(=O)O[C@H](/C(C)=C/[C@@H]3CC[C@@H](OC(C)C)[C@H](OC)C3)[C@H](C)[C@@H](O)CC1=O)[C@H](C)C[C@@H]2OC
IC50 (T-cell): 12.5 nM

SMILES: CC[C@@H]1/C=C(\C)C[C@H](C)C[C@H](OC)[C@H]2O[C@@](O)(C(=O)C(=O)N3CCCC[C@H]3C(=O)O[C@H](/C(C)=C/[C@@H]3CC[C@@H](OC/C=C/c4cc(F)cc(F)c4)[C@H](OC)C3)[C@H](C)[C@@H](O)CC1=O)[C@H](C)C[C@@H]2OC
IC50 (T-cell): 3.9 nM

SMILES: CC[C@@H]1/C=C(\C)C[C@H](C)C[C@H](OC)[C@H]2O[C@@](O)(C(=O)C(=O)N3CCCC[C@H]3C(=O)O[C@H](/C(C)=C/[C@@H]3CC[C@@H](OCc4ccccc4)[C@H](OC)C3)[C@H](C)[C@@H](O)CC1=O)[C@H](C)C[C@@H]2OC
IC50 (T-cell): 3 nM

SMILES: CC[C@@H]1/C=C(\C)C[C@H](C)C[C@H](OC)[C@H]2O[C@@](O)(C(=O)C(=O)N3CCCC[C@H]3C(=O)O[C@H](/C(C)=C/[C@@H]3CC[C@@H](OC/C=C/C(C)(C)C)[C@H](OC)C3)[C@H](C)[C@@H](O)CC1=O)[C@H](C)C[C@@H]2OC
IC50 (T-cell): 14.2 nM

EC50 [1]: 20.5 nM
SMILES: CC[C@@H]1/C=C(\C)C[C@H](C)C[C@H](OC)[C@H]2O[C@@](O)(C(=O)C(=O)N3CCCC[C@H]3C(=O)O[C@H](/C(C)=C/[C@@H]3CC[C@@H](OC/C=C/c4ccc(O)cc4)[C@H](OC)C3)[C@H](C)[C@@H](O)CC1=O)[C@H](C)C[C@@H]2OC

SMILES: CC#CCO[C@@H]1CC[C@@H](/C=C(\C)[C@H]2OC(=O)[C@@H]3CCCCN3C(=O)C(=O)[C@]3(O)O[C@H]([C@@H](OC)C[C@@H](C)C/C(C)=C/[C@@H](CC)C(=O)C[C@H](O)[C@H]2C)[C@@H](OC)C[C@H]3C)C[C@H]1OC
IC50 (T-cell): 6.1 nM

EC50 [1]: 34.3 nM
SMILES: CC[C@@H]1/C=C(\C)C[C@H](C)C[C@H](OC)[C@H]2O[C@@](O)(C(=O)C(=O)N3CCCC[C@H]3C(=O)O[C@H](/C(C)=C/[C@@H]3CC[C@@H](OC/C=C/c4cccc([N+](=O)[O-])c4)[C@H](OC)C3)[C@H](C)[C@@H](O)CC1=O)[C@H](C)C[C@@H]2OC
IC50 (T-cell): 1.9 nM

SMILES: C=CC[C@@H]1/C=C(\C)C[C@H](C)C[C@H](OC)[C@H]2O[C@@](O)(C(=O)C(=O)N3CCCC[C@H]3C(=O)O[C@H](/C(C)=C/[C@@H]3CC[C@@H](O)[C@H](OC)C3)[C@H](C)[C@@H](O)CC1=O)[C@H](C)C[C@@H]2OC [TACROLIMUS ANHYDROUS]
IC50 (T-cell): 0.29 nM

SMILES: CC[C@@H]1/C=C(\C)C[C@H](C)C[C@H](OC)[C@H]2O[C@@](O)(C(=O)C(=O)N3CCCC[C@H]3C(=O)O[C@H](/C(C)=C/[C@@H]3CC[C@@H](OC/C=C/c4cccc(F)c4)[C@H](OC)C3)[C@H](C)[C@@H](O)CC1=O)[C@H](C)C[C@@H]2OC
IC50 (T-cell): 2.5 nM

EC50 [1]: 1.6 nM
SMILES: CC[C@@H]1/C=C(\C)C[C@H](C)C[C@H](OC)[C@H]2O[C@@](O)(C(=O)C(=O)N3CCCC[C@H]3C(=O)O[C@H](/C(C)=C/[C@@H]3CC[C@@H](O)[C@H](OC)C3)[C@H](C)[C@@H](O)CC1=O)[C@H](C)C[C@@H]2OC [ASCOMYCIN]

SMILES: CC[C@@H]1/C=C(\C)C[C@H](C)C[C@H](OC)[C@H]2O[C@@](O)(C(=O)C(=O)N3CCCC[C@H]3C(=O)O[C@H](/C(C)=C/[C@@H]3CC[C@@H](OC(C)c4ccccc4)[C@H](OC)C3)[C@H](C)[C@@H](O)CC1=O)[C@H](C)C[C@@H]2OC (stereo not given in full)
IC50 (T-cell): 11.3 nM

SMILES: CC[C@@H]1/C=C(\C)C[C@H](C)C[C@H](OC)[C@H]2O[C@@](O)(C(=O)C(=O)N3CCCC[C@H]3C(=O)O[C@H](/C(C)=C/[C@@H]3CC[C@@H](OC/C(C)=C/c4ccccc4)[C@H](OC)C3)[C@H](C)[C@@H](O)CC1=O)[C@H](C)C[C@@H]2OC
IC50 (T-cell): 5.5 nM

SMILES: CC[C@@H]1/C=C(\C)C[C@H](C)C[C@H](OC)[C@H]2O[C@@](O)(C(=O)C(=O)N3CCCC[C@H]3C(=O)O[C@H](/C(C)=C/[C@@H]3CC[C@@H](OCC#Cc4ccccc4)[C@H](OC)C3)[C@H](C)[C@@H](O)CC1=O)[C@H](C)C[C@@H]2OC
IC50 (T-cell): 2.7 nM

EC50 [1]: 23 nM
SMILES: CC[C@@H]1/C=C(\C)C[C@H](C)C[C@H](OC)[C@H]2O[C@@](O)(C(=O)C(=O)N3CCCC[C@H]3C(=O)O[C@H](/C(C)=C/[C@@H]3CC[C@@H](OC/C=C/c4ccc(Br)cc4)[C@H](OC)C3)[C@H](C)[C@@H](O)CC1=O)[C@H](C)C[C@@H]2OC
IC50 (T-cell): 14.5 nM

SMILES: CC[C@@H]1/C=C(\C)C[C@H](C)C[C@H](OC)[C@H]2O[C@@](O)(C(=O)C(=O)N3CCCC[C@H]3C(=O)O[C@H](/C(C)=C/[C@@H]3CC[C@@H](OC/C=C/c4ccc(Cl)cc4)[C@H](OC)C3)[C@H](C)[C@@H](O)CC1=O)[C@H](C)C[C@@H]2OC
IC50 (T-cell): 15.8 nM

SMILES: CC[C@@H]1/C=C(\C)C[C@H](C)C[C@H](OC)[C@H]2O[C@@](O)(C(=O)C(=O)N3CCCC[C@H]3C(=O)O[C@H](/C(C)=C/[C@@H]3CC[C@@H](OC/C=C/C4CCCCC4)[C@H](OC)C3)[C@H](C)[C@@H](O)CC1=O)[C@H](C)C[C@@H]2OC
IC50 (T-cell): 5.5 nM

SMILES: CC[C@@H]1/C=C(\C)C[C@H](C)C[C@H](OC)[C@H]2O[C@@](O)(C(=O)C(=O)N3CCCC[C@H]3C(=O)O[C@H](/C(C)=C/[C@@H]3CC[C@@H](OCCCc4ccccc4)[C@H](OC)C3)[C@H](C)[C@@H](O)CC1=O)[C@H](C)C[C@@H]2OC
IC50 (T-cell): 3.5 nM

SMILES: CC[C@@H]1/C=C(\C)C[C@H](C)C[C@H](OC)[C@H]2O[C@@](O)(C(=O)C(=O)N3CCCC[C@H]3C(=O)O[C@H](/C(C)=C/[C@@H]3CC[C@@H](OCc4ccco4)[C@H](OC)C3)[C@H](C)[C@@H](O)CC1=O)[C@H](C)C[C@@H]2OC
IC50 (T-cell): 13.9 nM

SMILES: CC[C@@H]1/C=C(\C)C[C@H](C)C[C@H](OC)[C@H]2O[C@@](O)(C(=O)C(=O)N3CCCC[C@H]3C(=O)O[C@H](/C(C)=C/[C@@H]3CC[C@@H](OC/C=C/c4ccc(OC)cc4)[C@H](OC)C3)[C@H](C)[C@@H](O)CC1=O)[C@H](C)C[C@@H]2OC
IC50 (T-cell): 3.8 nM

SMILES: CC[C@@H]1/C=C(\C)C[C@H](C)C[C@H](OC)[C@H]2O[C@@](O)(C(=O)C(=O)N3CCCC[C@H]3C(=O)O[C@H](/C(C)=C/[C@@H]3CC[C@@H](OC/C=C/c4cccc(O)c4)[C@H](OC)C3)[C@H](C)[C@@H](O)CC1=O)[C@H](C)C[C@@H]2OC
IC50 (T-cell): 0.8 nM

SMILES: C/C=C(C)/C=C/CO[C@@H]1CC[C@@H](/C=C(\C)[C@H]2OC(=O)[C@@H]3CCCCN3C(=O)C(=O)[C@]3(O)O[C@H]([C@@H](OC)C[C@@H](C)C/C(C)=C/[C@@H](CC)C(=O)C[C@H](O)[C@H]2C)[C@@H](OC)C[C@H]3C)C[C@H]1OC
IC50 (T-cell): 6.9 nM
